# From patent US9439918B2 (priority 2008, dated 2016)
# What was measured:
# Salmonella spp. (20) = test: MIC, CLSI broth microdilution; type: cell-based; settings: for % by category resistant / % by category susceptible: CLSI 2008 criteria; for MIC 50% / MIC 90% / MIC Range: Salmonella spp., 20 strains; for MIC50 / MIC90: Salmonella
# Shigella spp. (40) = test: MIC, CLSI broth microdilution; type: cell-based; settings: for % by category resistant / % by category susceptible: CLSI 2008 criteria
# H. pylori (23) = test: MIC, agar dilution / Etest; settings: Helicobacter pylori, read-out: MIC 50% (Etest)
# [1] = test system: intraphagocytic L. pneumophila ATCC 33153; type: cell-based, Legionella pneumophila; settings: for Emax, Δ log10 CFU at 24 h compared to the post-phagocytosis inoculum: L.p., intracellular
# [2] = test system: intraphagocytic L. monocytogenes EGD; type: cell-based, Listeria monocytogenes
Compound,% by category resistant (Salmonella spp. (20)) [%],% by category susceptible (Salmonella spp. (20)) [%],MIC 50% (Salmonella spp. (20)),MIC 90% (Salmonella spp. (20)),% by category resistant (Shigella spp. (40)) [%],% by category susceptible (Shigella spp. (40)) [%],"MIC 50% (Shigella spp. (40); Shigella spp., 40 strains) [µg/mL]","MIC 90% (Shigella spp. (40); Shigella spp., 40 strains) [µg/mL]",MIC50 (Salmonella spp. (20)) [µg/mL],MIC90 (Salmonella spp. (20)) [µg/mL],"MIC50 (Shigella spp. (40); Shigella spp., 40 strains) [µg/mL]","MIC90 (Shigella spp. (40); Shigella spp., 40 strains) [µg/mL]",also measured
Trimethoprim-sulfamethoxazole [Trim-sulfa],0.0,100.00,≦0.25 μg/ml,≦0.25 μg/ml,62.5,37.5,>4,>4,,,,,MIC Range (Salmonella spp. (20)): ≦0.25 μg/ml
Quinupristin-dalfopristin,,,>4 µg/mL,>4 µg/mL,,,>4,>4,,,,,"MIC Range (Shigella spp. (40); Shigella spp., 40 strains): >4 µg/mL"
CC1(C)S[C@@H]2[C@H](NC(=O)[C@H](N)c3ccccc3)C(=O)N2[C@H]1C(=O)O [Ampicillin],,,,,,,,,,,,,MIC50 (H. pylori (23)): ≤ 0.015 µg/mL
"C[C@H]1COc2c(N3CCN(C)CC3)c(F)cc3c(=O)c(C(=O)O)cn1c23 [Levofloxacin, levofloxacin]",0.0,95.0,,,0.0,100.0,,,≤ 0.12,1,≤ 0.12,≤ 0.12,
"CC[C@H]1OC(=O)[C@H](C)[C@@H](O[C@H]2C[C@@](C)(OC)[C@@H](O)[C@H](C)O2)[C@H](C)[C@@H](O[C@@H]2O[C@H](C)C[C@H](N(C)C)[C@H]2O)[C@](C)(O)C[C@@H](C)CN(C)[C@H](C)[C@@H](O)[C@]1(C)O [AZI, azithromycin]",,,,,,,,,4,8,4,8,"Emax, CFU decrease from original inoculum ([1]; 48 h): −0.83 log10 units; Emax, Δ log10 CFU at 24 h compared to the post-phagocytosis inoculum [1]: −0.83 Δ log10 CFU; MIC Range (Salmonella spp. (20)): 2 to 8 µg/mL; MIC Range (Salmonella spp. (20); listed as AZ): 2-8 (AZ) μg/ml; Emax, Δ log10 CFU at 24 h compared to the post-phagocytosis inoculum [2]: −0.81 Δ log10 CFU; Emax, CFU decrease from original inoculum ([2]; 24 h): −0.81 log10 units"
"CC[C@H]1OC(=O)[C@H](C)C(=O)[C@H](C)[C@@H](O[C@@H]2O[C@H](C)C[C@H](N(C)C)[C@H]2O)[C@](C)(OC)C[C@@H](C)C(=O)[C@H](C)[C@H]2N(CCCCn3cnc(-c4cccnc4)c3)C(=O)O[C@]12C [TEL, telithromycin]",,,,,,,,,8,> 16,16,16,"Emax, Δ log10 CFU at 24 h compared to the post-phagocytosis inoculum [1]: −0.63 Δ log10 CFU"
Amoxicillin-clavulanate,0.0,95.0,2 µg/mL,8 µg/mL,0.0,72.5,8,>8,,,,,
